Test results published in patent publication US11149062B2, “HDAC inhibitors and methods of treatment using the same” (UWM Research Foundation, Inc., priority 2015, dated 2021).

How the values were obtained:
[1] = target: T1, Recombinant human HDAC1 (Homo sapiens, UniProt Q13547); test: HDAC-Glo I/II assay, HDAC1; format: biochemical; details: for IC50: Class I HDAC, compounds reduced by TCEP prior to assay, read-out: IC50 of HDAC1; for Class I selectivity Ratio HDAC 1/HDAC8 / Class I vs. Class IIa Ratio HDAC 1/HDAC6: ratio of IC50 values
T1 construct: purchased BPS Bioscience Inc
Procedure: (§1) The purified compounds of all fragments and natural product derivatives were evaluated for inhibitory effects on three different classes of HDAC proteins (class I, IIa, and IIb). […] All activity was determined by using a fluorescence-based in vitro assay. Class I HDAC proteins that were evaluated were HDAC1, HDAC2, HDAC3, HDAC8, HDAC4, and HDAC6. Class IIa HDAC protein were HDAC4 and the Class IIb HDAC protein were HDAC6.
(§2) HDAC-Glo™ I/II Assay and Screening System (Promega) was used to determine the HDAC inhibitory activity. Recombinant human HDAC1, HDAC2, HDAC3, HDAC4, HDAC6 and HDAC8 were purchased from BPS Bioscience Inc. The inhibitory activities of the test compounds against recombinant HDAC were performed according to reagent suppliers' protocols.
(§3) All test compounds were firstly dissolved in DMSO to make 10 mM stock solution. A certain amount of stock solution was diluted to 1 mM by DMSO and then reduced by tris(2-carboxyethyl)phosphine hydrochloride (TCEP) in a molar ration of 1:1.5 for 20 min at ambient temperature prior to being assayed. After reduction, a series of fivefold dilutions of each reduced compound were prepared with HDAC-Glo buffer and 25 μL of each dilution was added into a well on a 96-well plate. HDAC enzymes were diluted to the desired concentrations with HDAC-Glo buffer and 25 μL of each diluted enzyme was dispensed into a well to mix with 25 μL of testing compound at room temperature for 30-60 seconds. After the reaction mixture had been incubated at room temperature for 1 hour, 50 μL of HDAC-Glo reagent was added to each reaction well and mixed up for 30-60 seconds. Finally, the plate was incubated at room temperature for an additional 30 minutes before the luminescence was measured on a Synergy HT plate reader (Bio-Tek). The luminescence intensity data were analyzed using GraphPad Prism 5 (GraphPad Software). In the absence of any test compound, the luminescence intensity (I100) in each data set was defined as 100% activity. In the absence of both of HDAC enzymes and test compound, the luminescence intensity (I0) in each data set was defined as 0% activity. The relative activity (%) in the presence of each compound was calculated according to the following equation: % activity=(I−I0)/(I100−I0), where I=the luminescence intensity if a compound is present in the reaction. Experiments were performed in triplicate and the calculated mean values were used for plotting.

[2] = target: T2, Recombinant human HDAC3 (Homo sapiens, UniProt O15379); test: HDAC-Glo I/II assay, HDAC3; format: biochemical; details: Class I HDAC; compounds reduced by TCEP prior to assay
T2 construct: purchased BPS Bioscience Inc
Procedure: as §1, §2, §3

[3] = target: T3, Recombinant human HDAC8 (Homo sapiens, UniProt Q9BY41); test: HDAC-Glo I/II assay, HDAC8; format: biochemical; details: Class I HDAC; compounds reduced by TCEP prior to assay
T3 construct: purchased BPS Bioscience Inc
T3 sequence (Q9BY41 1-377): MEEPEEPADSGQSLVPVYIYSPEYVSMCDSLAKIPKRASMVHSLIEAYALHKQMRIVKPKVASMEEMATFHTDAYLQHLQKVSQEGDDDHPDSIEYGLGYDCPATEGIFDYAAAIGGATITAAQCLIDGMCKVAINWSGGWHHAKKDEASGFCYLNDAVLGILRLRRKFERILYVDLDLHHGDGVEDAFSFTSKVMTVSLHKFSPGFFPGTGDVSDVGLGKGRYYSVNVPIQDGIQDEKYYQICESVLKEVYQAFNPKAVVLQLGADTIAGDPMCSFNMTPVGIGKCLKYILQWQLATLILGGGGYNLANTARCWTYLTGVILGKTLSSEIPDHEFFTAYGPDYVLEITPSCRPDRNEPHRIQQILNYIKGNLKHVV
Procedure: as §1, §2, §3

[4] = target: T4, Recombinant human HDAC4 (Homo sapiens, UniProt P56524); test: HDAC-Glo I/II assay, HDAC4; format: biochemical; details: Class IIa HDAC; compounds reduced by TCEP prior to assay; read-out: IC50 of HDAC4
T4 construct: purchased BPS Bioscience Inc
Procedure: as §1, §2, §3

[5] = system: HCT-116 (colon cancer); test: MTT antiproliferative assay, HCT-116; format: cell-based; details: Homo sapiens, HCT-116; MTT, 48 h; read-out: Antiproliferative Activity GI50, Colon HCT-116
Procedure: (§4) Briefly, the tumor cells (1×10^4 cells/well) were seeded in 96-well microtiter plates and incubated for 24 h at 37° C. Following incubation, the media was replaced with fresh media containing the above compounds at concentrations ranging from 1 μM to 1 pM diluted in DMSO and incubated for an additional 48 h. Drugs were run in duplicate or triplicate and control cells received fresh media with DMSO concentration equivalent to the treatment groups. […] After aspirating the culture medium, 200 μL of DMSO was added to dissolve the precipitate and the resulting solution was measured for absorbance at 570 nm with a reference wavelength of 690 nm using a microplate reader (Infinite M200 Pro TECAN).

[6] = system: HeLa (cervical cancer); test: MTT antiproliferative assay, HeLa; format: cell-based; details: Homo sapiens, MTT, 48 h, read-out: Antiproliferative Activity GI50, Cervical HeLa
Procedure: as §4

[7] = system: RFX393 (renal); test: MTT antiproliferative assay, RFX393; format: cell-based; details: MTT, 48 h; read-out: Antiproliferative Activity GI50, Renal RFX393
Procedure: as §4

[8] = in vivo; details: BALB/c, mouse, in vivo, ip
Text: BALB/c mice were purchased from The Jackson Laboratory (Bar Harbor, Me.) and used between 7 and 10 weeks of age. Mice were housed in a conventional animal vivarium and were given free access to food and water. All studies and procedures were approved by the Animal Care and Use Committee of the University of Wisconsin, Milwaukee.
Each animal was initially weighed using a digital scale and then intraperitoneally (IP) injected with the compounds (listed in Table 2). A single mouse was given a single IP dose of 200 mg/kg, body weight, a second mouse received a dose of 100 mg/kg and a third mouse received a single dose of 50 mg/kg. The mice were observed and weighed every other day for a period of 2 weeks. They were euthanized if they lost more than 20% of their body weight or if there were other signs of significant toxicity. […] This process was repeated until a tolerated dose was found, and the MTD value was determined.
To determine the MTD in vivo, the compounds listed above were injected intraperitoneally into BALB/c mice and morbidity and mortality were monitored over two weeks.

[9] = system: colon (HCT-116), cervical (HeLa), and renal (RFX393) tumor cell lines; test: MTT antiproliferative assay, all three tumor cell lines; format: cell-based; details: HCT-116, HeLa, RFX393; summary of Table 3; read-out: GI50 values against all three tumor cell lines
Procedure: as §4

[10] = 10 mg/mL cpd in 20% DMSO/saline
[11] = target: T5, Recombinant human HDAC2 (Homo sapiens, UniProt Q92769); test: HDAC-Glo I/II assay, HDAC2; format: biochemical; details: Class I HDAC; compounds reduced by TCEP prior to assay
T5 construct: purchased BPS Bioscience Inc
Procedure: as §1, §2, §3

[12] = system: SKOV-3 (ovarian); test: MTT antiproliferative assay, SKOV-3; format: cell-based; details: Homo sapiens, SK-OV-3; MTT, 48 h; read-out: Antiproliferative Activity GI50, Ovarian SKOV-3
Procedure: as §4

[13] = system: DU-145 (prostate cancer); test: MTT antiproliferative assay, DU-145; format: cell-based; details: Homo sapiens, DU-145; MTT, 48 h; read-out: Antiproliferative Activity GI50, Prostate DU-145
Procedure: as §4

[14] = system: MDA-MB-231 (breast cancer); test: MTT antiproliferative assay, MDA-MB-231; format: cell-based; details: Homo sapiens, MDA-MB-231; MTT, 48 h; read-out: Antiproliferative Activity GI50, Breast MDA-MB-231
Procedure: as §4

[15] = system: COLO-205 (colon cancer); test: MTT antiproliferative assay, COLO-205; format: cell-based; details: Homo sapiens, COLO 205; MTT, 48 h; read-out: Antiproliferative Activity GI50, Colon COLO-205
Procedure: as §4

T4 sequence (P56524 whole entry): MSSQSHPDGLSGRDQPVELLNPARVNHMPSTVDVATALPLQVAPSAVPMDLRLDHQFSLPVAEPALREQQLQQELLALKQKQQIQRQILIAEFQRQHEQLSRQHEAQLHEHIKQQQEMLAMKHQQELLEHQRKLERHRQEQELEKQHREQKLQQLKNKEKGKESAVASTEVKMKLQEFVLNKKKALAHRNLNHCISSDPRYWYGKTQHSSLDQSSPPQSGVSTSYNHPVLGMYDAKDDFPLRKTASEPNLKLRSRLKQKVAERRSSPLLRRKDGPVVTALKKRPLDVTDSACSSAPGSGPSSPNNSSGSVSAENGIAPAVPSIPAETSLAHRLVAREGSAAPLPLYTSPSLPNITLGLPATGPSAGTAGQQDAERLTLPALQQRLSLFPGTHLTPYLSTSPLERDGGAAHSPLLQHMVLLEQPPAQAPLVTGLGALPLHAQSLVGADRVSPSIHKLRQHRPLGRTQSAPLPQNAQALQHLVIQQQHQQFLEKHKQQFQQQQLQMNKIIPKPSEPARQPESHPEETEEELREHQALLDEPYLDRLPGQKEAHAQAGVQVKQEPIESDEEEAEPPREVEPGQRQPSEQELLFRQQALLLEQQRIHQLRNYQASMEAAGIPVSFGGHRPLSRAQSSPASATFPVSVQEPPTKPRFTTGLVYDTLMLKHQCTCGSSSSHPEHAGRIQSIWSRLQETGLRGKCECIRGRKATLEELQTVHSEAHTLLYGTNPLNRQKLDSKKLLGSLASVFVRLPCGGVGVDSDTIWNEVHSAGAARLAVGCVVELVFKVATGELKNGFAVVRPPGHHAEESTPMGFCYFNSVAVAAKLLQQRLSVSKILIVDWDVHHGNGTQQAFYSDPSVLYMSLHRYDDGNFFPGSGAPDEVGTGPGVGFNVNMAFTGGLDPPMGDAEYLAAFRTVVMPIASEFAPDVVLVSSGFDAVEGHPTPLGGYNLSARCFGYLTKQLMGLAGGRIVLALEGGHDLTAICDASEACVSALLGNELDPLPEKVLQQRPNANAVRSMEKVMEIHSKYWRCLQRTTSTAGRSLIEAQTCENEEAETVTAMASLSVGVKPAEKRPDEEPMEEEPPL
T2 sequence (O15379 whole entry): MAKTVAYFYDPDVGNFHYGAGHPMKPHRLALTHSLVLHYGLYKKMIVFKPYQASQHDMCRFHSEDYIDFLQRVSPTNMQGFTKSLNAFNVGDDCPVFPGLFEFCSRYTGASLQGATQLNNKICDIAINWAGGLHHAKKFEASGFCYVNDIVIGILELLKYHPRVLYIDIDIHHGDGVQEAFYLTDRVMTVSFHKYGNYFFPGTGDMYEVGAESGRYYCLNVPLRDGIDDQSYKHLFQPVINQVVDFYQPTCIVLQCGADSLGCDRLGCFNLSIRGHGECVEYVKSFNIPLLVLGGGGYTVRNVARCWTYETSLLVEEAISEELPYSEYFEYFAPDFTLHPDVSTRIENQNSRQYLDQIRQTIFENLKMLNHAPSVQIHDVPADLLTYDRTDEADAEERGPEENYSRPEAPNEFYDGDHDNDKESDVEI
T2 sequence (Q9Y618 395-489 partner limits assumed): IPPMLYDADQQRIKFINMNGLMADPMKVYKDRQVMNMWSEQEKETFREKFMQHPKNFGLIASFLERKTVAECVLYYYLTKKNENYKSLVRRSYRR
T1 sequence (Q13547 whole entry): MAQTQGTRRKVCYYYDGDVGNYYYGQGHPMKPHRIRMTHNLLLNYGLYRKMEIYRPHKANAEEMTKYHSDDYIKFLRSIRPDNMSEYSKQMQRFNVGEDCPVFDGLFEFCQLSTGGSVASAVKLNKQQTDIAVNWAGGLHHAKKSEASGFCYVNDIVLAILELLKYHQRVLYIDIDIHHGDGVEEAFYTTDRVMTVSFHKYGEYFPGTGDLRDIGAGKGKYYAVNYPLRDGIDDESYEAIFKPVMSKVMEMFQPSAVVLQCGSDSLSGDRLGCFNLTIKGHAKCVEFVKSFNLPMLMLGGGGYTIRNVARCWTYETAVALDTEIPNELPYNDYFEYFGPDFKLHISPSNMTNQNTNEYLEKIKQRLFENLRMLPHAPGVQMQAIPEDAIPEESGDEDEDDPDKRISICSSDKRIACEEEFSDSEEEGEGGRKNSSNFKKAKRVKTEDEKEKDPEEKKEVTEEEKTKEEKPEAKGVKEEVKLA
T5 sequence (Q92769 whole entry): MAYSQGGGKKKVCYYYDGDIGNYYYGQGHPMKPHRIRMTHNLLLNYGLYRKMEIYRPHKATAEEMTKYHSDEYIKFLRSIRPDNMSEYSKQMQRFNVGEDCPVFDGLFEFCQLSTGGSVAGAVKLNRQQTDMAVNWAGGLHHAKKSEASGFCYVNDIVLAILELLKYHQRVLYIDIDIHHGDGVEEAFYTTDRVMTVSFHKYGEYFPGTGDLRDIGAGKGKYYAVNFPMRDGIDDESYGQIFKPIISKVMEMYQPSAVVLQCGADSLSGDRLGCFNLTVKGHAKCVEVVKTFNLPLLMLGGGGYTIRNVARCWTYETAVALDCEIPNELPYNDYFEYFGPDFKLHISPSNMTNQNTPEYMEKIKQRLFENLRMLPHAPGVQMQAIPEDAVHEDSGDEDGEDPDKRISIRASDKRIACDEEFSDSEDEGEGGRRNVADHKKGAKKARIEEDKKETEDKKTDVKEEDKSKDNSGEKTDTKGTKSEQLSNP

Row | SMILES | IC50 [1] [µM] | IC50 [2] [µM] | IC50 [3] [µM] | IC50 [4] [µM] | GI50 [5] [µM] | GI50 [6] [µM] | GI50 [7] [µM] | MTD at 2 weeks [8] [mg/kg] | GI50 [9] [µM] | Solubility [10] | Class I selectivity Ratio HDAC 1/HDAC8 [1] | IC50 [11] [µM] | Class I vs. Class IIa Ratio HDAC 1/HDAC6 [1] | GI50 [12] [µM] | GI50 [13] [µM] | GI50 [14] [µM] | GI50 [15] [µM]
1 | CCC(C)C(NC(=O)CC(O)/C=C/CCS)C(=O)O (centres unmarked) [TDF4] | 0.0039 | 0.714 | 43.9 | > 1000 | 3.7 | 4.8 | 4.1 | > 200 | ≤ 5 | Mostly soluble | – | – | – | – | – | – | –
2 | CC(C)[C@H](NC(=O)CC(O)/C=C/CCS)C(=O)O (some centres unmarked) [TDF6] | 0.0035 | 0.0416 | 16.6 | > 1000 | 1.3 | 3.6 | 3.1 | > 200 | ≤ 4 | Soluble | 0.00003 | 0.111 | – | – | – | – | –
3 | CCC(C)[C@H]1NC(=O)[C@H]2CSSCC/C=C/[C@H](CC(=O)N[C@H](CCSC)C(=O)N2)OC(=O)C[C@@H]1O (some centres unmarked) [TDP-A, Thailandepsin A, reference compound] | 0.0024 | 0.0077 | 8.44 | 20.5 | 0.00093 | 0.00036 | 0.00047 | 6.25 | – | Not soluble | 0.00065 | 0.0081 | 0.0088 | 0.002 | 0.001 | 0.003 | 0.0035
4 | CCCC[C@H]1NC(=O)C[C@H]2/C=C/CCSSC[C@@H](NC1=O)C(=O)N[C@H](C(C)CC)[C@@H](O)CC(=O)O2 (some centres unmarked) [TDP-B, Thailandepsin B, reference compound] | 0.0022 | 0.0482 | 10.9 | 27.9 | 0.002 | 0.0021 | 0.0022 | 6.25 | – | Not soluble | 0.00026 | 0.0256 | 0.0034 | – | – | – | –
